US10221163B2 (priority 2015, dated 2019)
Read-outs that look alike come from different tables or passages of the source.

What was measured:
[1] = biological target: IMP-1 (Serratia marcescens, UniProt P52699); experiment: biochemical; format: biochemical; settings: fluorescence assay, CCF2-FA substrate, 2 pM enzyme, 2 hours at 25° C.; read-out: IMP-1 IC50
Method in brief: (§1)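 Fluorescence assay of metallo-β-lactamase activity using CCF2-FA, a cephalosporin-linked 7-hydroxycoumarin–fluorescein substrate. Inhibitor, enzyme and substrate were incubated together for 2 hours at 25° C. IC50 came from a 4-parameter fit of inhibition versus inhibitor concentration.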

[2] = biological target: NDM-1 (Klebsiella pneumoniae, UniProt C7C422); experiment: biochemical; format: biochemical; settings: fluorescence assay, CCF2-FA substrate, 1 pM enzyme, 2 hours at 25° C.; read-out: NDM-1 IC50
Method in brief: as §1

[3] = biological target: VIM-1 (Pseudomonas aeruginosa (strain ATCC 15692 / DSM 22644 / CIP 104116 / JCM 14847 / LMG 12228 / 1C / PRS 101 / PAO1), UniProt A0A0F7KYQ8); experiment: biochemical; settings: CCF2-FA substrate, 30 pM enzyme, 2 hours at 25° C.
Method in brief: as §1

[4] = test system: Escherichia coli expressing NDM-1 (CLB30005, CLB30016); format: cell-based; settings: with imipenem 1 μg/ml; for Escherichia coli MITC95: NDM-1 strain
Method in brief: (§2)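 Clinical isolates (E. coli NDM-1, S. marcescens IMP-1, K. pneumoniae VIM-1) were diluted 1:100 from saline suspension into 1.1×CAMHB and exposed to test compound with imipenem at 1 μg/ml. Plates were incubated at 35° C for 22 hours to 24 hours, and growth was read by absorbance.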

[5] = test system: Klebsiella pneumoniae expressing VIM-1 (IHMA599644); format: cell-based; settings: for Klebsiella pneumoniae expressing VIM-1 (IHMA599644) MITC95: with imipenem 1 μg/ml; for Klebsiella pneumoniae MITC95: VIM-1 strain IHMA599644, with imipenem 1 μg/ml
Method in brief: as §2

[6] = test system: Serratia marcescens expressing IMP-1 (CL5741); format: cell-based; settings: for Serratia marcescens expressing IMP-1 (CL5741) MITC95: with imipenem 1 μg/ml; for Serratia marcescens MITC95: IMP-1 strain CL5741, with imipenem 1 μg/ml
Method in brief: as §2

[7] = test system: Pseudomonas aeruginosa efflux+ (MB9798), IMP-1; format: cell-based; parameters: Concentration of metallo-β-lactamase inhibitor which restores susceptibility of efflux + (MB9798) strain to imipenem: unit not given here; settings: C, D serine β-lactamase inhibitor closely related to relebactam; for P. aeruginosa expressing IMP-1, efflux + (MB9798) MITC95: concentration restoring susceptibility to imipenem at 2 μg/mL in the presence of a class A; for Concentration of metallo-β-lactamase inhibitor which restores susceptibility of efflux + (MB9798) strain to imipenem: imipenem at 2 μg/mL, in the presence of a class A
Method in brief: (§3)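 Steps: add fixed imipenem and/or ceftazidime (usually CLSI breakpoint) and fixed AmpC-directed class A/C inhibitor to microbroth MIC wells; titrate MBL inhibitor; record concentration regaining susceptibility for each PAO1-derived strain; divide efflux+ by efflux− value.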

[8] = test system: Pseudomonas aeruginosa efflux− (MB9799), IMP-1; format: cell-based; settings: C, D serine β-lactamase inhibitor closely related to relebactam; for P. aeruginosa expressing IMP-1, efflux − (MB9799) MITC95: concentration restoring susceptibility to imipenem at 2 μg/mL in the presence of a class A; for Concentration of metallo-β-lactamase inhibitor which restores susceptibility of efflux − (MB9799) strain to imipenem: imipenem at 2 μg/mL, in the presence of a class A
Method in brief: as §3

[9] = test system: Pseudomonas aeruginosa MB9798 vs MB9799
Method in brief: as §3

[10] = fluorescence assay, read-out: VIM-1 IC50
[11] = 95% inhibition of bacterial growth
[12] = ratio MITC95 PA_9798/MITC95 PA_9799
[13] = fold difference between efflux+ (MB9798) and efflux− (MB9799) strains, imipenem at 2 μg/mL

NDM-1, sequence (C7C422 whole entry, looked up, species assumed): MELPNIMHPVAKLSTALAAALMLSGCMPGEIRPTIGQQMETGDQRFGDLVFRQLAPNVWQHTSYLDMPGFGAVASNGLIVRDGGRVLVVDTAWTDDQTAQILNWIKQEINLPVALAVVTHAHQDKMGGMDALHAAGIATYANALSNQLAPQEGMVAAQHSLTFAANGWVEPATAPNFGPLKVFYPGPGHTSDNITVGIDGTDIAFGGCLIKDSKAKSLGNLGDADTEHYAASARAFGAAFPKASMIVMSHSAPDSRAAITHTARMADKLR
IMP-1, sequence (P52699 whole entry, looked up, species assumed): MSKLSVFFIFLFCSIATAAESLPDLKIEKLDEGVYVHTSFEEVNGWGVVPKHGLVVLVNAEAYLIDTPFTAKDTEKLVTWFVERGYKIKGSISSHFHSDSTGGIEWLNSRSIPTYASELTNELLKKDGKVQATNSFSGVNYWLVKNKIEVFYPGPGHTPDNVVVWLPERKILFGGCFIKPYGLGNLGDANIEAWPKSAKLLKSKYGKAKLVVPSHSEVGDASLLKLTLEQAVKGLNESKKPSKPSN

SMILES	IC50 [1]	IC50 [2]	IC50 [3, 10]	Escherichia coli expressing NDM-1 (CLB30016) MITC95 [4, 11]	Klebsiella pneumoniae expressing VIM-1 (IHMA599644) MITC95 [5, 11]	Serratia marcescens expressing IMP-1 (CL5741) MITC95 [6, 11]	P. aeruginosa expressing IMP-1, efflux + (MB9798) MITC95 [7]	P. aeruginosa expressing IMP-1, efflux − (MB9799) MITC95 [8]	Efflux ratio [9, 12]	IC50 ([3]; VIM-1 IC50, fluorescence assay)	Escherichia coli MITC95 ([4]; 95% inhibition of growth)	Klebsiella pneumoniae MITC95 ([5]; 95% inhibition of growth)	Serratia marcescens MITC95 ([6]; 95% inhibition of growth)	Escherichia coli MITC95 [4, 11]	Klebsiella pneumoniae MITC95 [5, 11]	Serratia marcescens MITC95 [6, 11]	Concentration of metallo-β-lactamase inhibitor which restores susceptibility of efflux + (MB9798) strain to imipenem [7]	Concentration of metallo-β-lactamase inhibitor which restores susceptibility of efflux − (MB9799) strain to imipenem [8]	Efflux ratio [9, 13]
CN1CC(N(C)S(=O)(=O)c2ccc(-c3cccc4sc(N)nc34)c(-c3nnn[nH]3)c2S(N)(=O)=O)C1.O=C(O)C(F)(F)F [Example 107, 3-(4-(2-aminobenzo[d]thiazol-4-yl)-N-methyl-2-sulfamoyl-3-(1H-tetrazol-5-yl)phenylsulfonamido)-1-methylazetidin-1-ium 2,2,2-trifluoroacetate]	1.4 nM	0.184 nM	1.69 nM	3.125 µM	6.25 µM	3.125 µM	6.25 µM	1.563 µM	4.00										
NCc1nc2cc(-c3ccc(S(=O)(=O)N[C@@H]4CCNC4)c(S(N)(=O)=O)c3-c3nn[nH]n3)ccc2s1 [Example 275, (R)-4-(2-(aminomethyl)benzo[d]thiazol-5-yl)-N^1-(pyrrolidin-3-yl)-3-(2H-tetrazol-5-yl)benzene-1,2-disulfonamide]	0.171 nM	0.0633 nM					0.7813 µM	0.7813 µM	1.00	0.0902 nM	0.7813 µM	1.563 µM	0.7813 µM						
C[C@@H](CCN)NS(=O)(=O)c1ccc(-c2ccc(N)nc2)c(-c2nn[nH]n2)c1S(N)(=O)=O [Example 499, (S)-N1-(4-aminobutan-2-yl)-4-(6-aminopyridin-3-yl)-3-(1H-tetrazol-5-yl)benzene-1,2-disulfonamide]	1.02 nM	0.555 nM	0.291 nM											0.7813 µM	3.125 µM	1.563 µM	0.7813	0.7813	1.00
Cn1c(N)nc2c(-c3ccc(S(=O)(=O)NC[C@@H](O)CN)c(S(N)(=O)=O)c3-c3nn[nH]n3)cccc21 [Example 308, (S)-4-(2-amino-1-methyl-1H-benzo[d]imidazol-4-yl)-N1-(3-amino-2-hydroxypropyl)-3-(2H-tetrazol-5-yl)benzene-1,2-disulfonamide]	0.403 nM	0.0619 nM					0.7813 µM	0.7813 µM	1.00	0.179 nM	0.3906 µM	1.563 µM	0.7813 µM						
Nc1ccc2cccc(-c3ccc(S(N)(=O)=O)c(S(N)(=O)=O)c3-c3nn[nH]n3)c2n1 [Example 2, 4-(2-aminoquinolin-8-yl)-3-(2H-tetrazol-5-yl)benzene-1,2-disulfonamide]	0.279 nM	0.163 nM	0.462 nM	0.7813 µM	1.563 µM	0.7813 µM	0.7813 µM	0.7813 µM	1.00										
NCCNS(=O)(=O)c1ccc(-c2ccnc(CN)c2)c(-c2nn[nH]n2)c1S(N)(=O)=O [Example 461, N1-(2-Aminoethyl)-4-(2-(aminomethyl)pyridin-4-yl)-3-(2H-tetrazol-5-yl)benzene-1,2-disulfonamide]	50.4 nM	42.1 nM	4.77 nM								1.563 µM	6.25 µM	3.125 µM				12.5	3.125	4.00
Nc1ncc(-c2ccc(S(=O)(=O)N[C@@H]3CNC[C@@H]3N)c(S(N)(=O)=O)c2-c2nn[nH]n2)s1 [Example 321, N^1-((3R,4S)-4-aminopyrrolidin-3-yl)-4-(2-aminothiazol-5-yl)-3-(2H -tetrazol-5-yl)benzene-1,2-disulfonamide]	1.25 nM	0.376 nM					1.563 µM	0.7813 µM	2.00	0.958 nM	0.7813 µM	3.125 µM	1.563 µM						
NC[C@H](CO)NS(=O)(=O)c1ccc(-c2cccc3sc(N)nc23)c(-c2nnn[nH]2)c1S(N)(=O)=O [Example 202, (R)—N^1-(1-amino-3-hydroxypropan-2-yl)-4-(2-aminobenzo[d]thiazol-4-yl)-3-(1H-tetrazol-5-yl)benzene-1,2-disulfonamide]	0.713 nM	0.124 nM		3.125 µM	3.125 µM	1.563 µM	1.563 µM	1.563 µM	1.00	0.328 nM									
COc1ccnc(CNS(=O)(=O)c2ccc(-c3cccc4sc(N)nc34)c(-c3nnn[nH]3)c2S(N)(=O)=O)n1 [Example 34, 4-(2-amino-1,3-benzothiazol-4-yl)-N1-[(4-methoxypyrimidin-2-yl)methyl]-3-(1H-tetrazol-5-yl)benzene-1,2-disulfonamide]	0.429 nM	0.0816 nM	0.329 nM	25 µM	50 µM	6.25 µM	25 µM	6.25 µM	4.00										
Nc1nc2c(-c3ccc(S(=O)(=O)N4CCNCC4)c(S(N)(=O)=O)c3-c3nn[nH]n3)cccc2s1 [Example 142, 3-(2-Aminobenzo[d]thiazol-4-yl)-6-(piperazin-1-ylsulfonyl)-2-(2H-tetrazol-5-yl)benzenesulfonamide]	0.636 nM	0.185 nM	0.558 nM	3.906 µM	3.125 µM	1.563 µM	1.563 µM	1.172 µM	1.33										
